Reference: US9951052B2, “Inhibitors of the renal outer medullary potassium channel” (Merck Sharp & Dohme Corp., priority 2013, dated 2018)

Biological target: T1, hROMK (hKir1.1) (Homo sapiens, UniProt P48048)
T1 construct: expressed in transfected cells
T1 sequence (P48048 1-391): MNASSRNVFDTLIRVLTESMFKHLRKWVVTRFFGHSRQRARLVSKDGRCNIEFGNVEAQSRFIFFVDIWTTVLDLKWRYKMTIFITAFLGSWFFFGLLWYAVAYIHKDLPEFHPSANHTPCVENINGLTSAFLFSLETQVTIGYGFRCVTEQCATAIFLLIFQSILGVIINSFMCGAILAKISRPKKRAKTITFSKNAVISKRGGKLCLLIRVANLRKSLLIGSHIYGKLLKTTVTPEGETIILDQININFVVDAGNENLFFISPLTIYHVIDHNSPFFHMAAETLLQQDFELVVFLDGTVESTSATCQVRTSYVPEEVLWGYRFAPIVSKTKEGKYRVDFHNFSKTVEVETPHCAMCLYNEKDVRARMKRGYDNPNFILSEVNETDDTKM
Experiment: Thallium Flux Assay (ROMK channel functional thallium flux, FLIPR-Tetra)
Type: cell-based
Conditions: HEK293 cells stably expressing hROMK (hKir1.1); 30 min incubation with compound; HCl salt run where final product was an HCl salt
In short: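 HEK293 cells stably expressing hROMK were FluxOR dye-loaded 90 min, then given compound 30 min at room temperature in probenecid assay buffer with 0.3 mM ouabain. Final 3 mM Tl+/0.3 mM K+ stimulus; fluorescence ([…]) recorded ~10 min. Normalized to 3 μM reference inhibitor for IC50.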

SMILES	IC50 [nM]
COc1nsc(NC(=O)C2C3CN(C[C@H](O)c4ccc5c(c4C)COC5=O)CC32)n1 (stereo partly drawn) [Example 57, 3-((R)-2-hydroxy-2-(4-methyl-1-oxo-1,3-dihydroisobenzofuran-5-yl)ethyl)-N-(3-methoxy-1,2,4-thiadiazol-5-yl)-3-azabicyclo[3.1.0]hexane-6=carboxamide]	310
Cc1c([C@@H](O)CN2CC3C(C2)C3C(=O)Nc2ccc(C#N)cn2)ccc2c1COC2=O (stereo partly drawn) [Example 59, N-(5-cyanopyridin-2-yl)-3-((R)-2-hydroxy-2-(4-methyl-1-oxo-1,3-dihydroisobenzofuran-5-yl)ethyl)-3-azabicyclo[3.1.0]hexane-6-carboxamide]	400
Cc1c([C@@H](O)CN2CC3C(C2)C3C(=O)Nc2ccc(-n3cnnn3)cn2)ccc2c1COC2=O (stereo partly drawn) [Example 60, N-(5-(1H-tetrazol-1-yl)pyridin-2-yl)-3-((R)-2-hydroxy-2-(4-methyl-1-oxo-1,3-dihydroisobenzofuran-5-yl)ethyl)-3-azabicyclo[3.1.0]hexane-6-carboxamide]	470
Cc1nsc(N(C)C(=O)C2C3CN(C[C@H](O)c4ccc5c(c4C)COC5=O)CC32)n1 (stereo partly drawn) [Example 62, 3-((R)-2-hydroxy-2-(4-methyl-1-oxo-1,3-dihydroisobenzofuran-5-yl)ethyl)-N-methyl-N-(3-methyl-1,2,4-thiadiazol-5-yl)-3-azabicyclo[3.1.0]hexane-6-carboxamide]	170

Continued, values first:

IC50 [nM]	SMILES
280	Cc1c([C@@H](O)CN2CC3C(C2)C3C(=O)Nc2cnsc2)ccc2c1COC2=O (stereo partly drawn) [Example 58, 3-((R)-2-hydroxy-2-(4-methyl-1-oxo-1,3-dihydroisobenzofuran-5-yl)ethyl)-N-(isothiazol-4-yl)-3-azabicyclo[3.1.0]hexane-6-carboxamide]
140	Cc1c([C@@H](O)CN2CC3C(C2)C3C(=O)N(C)c2ccns2)ccc2c1COC2=O (stereo partly drawn) [Example 61, 3-((R)-2-hydroxy-2-(4-methyl-1-oxo-1,3-dihydroisobenzofuran-5-yl)ethyl)-N-(isothiazol-5-yl)-N-methyl-3-azabicyclo[3.1.0]hexane-6-carboxamide]
